This test deals with T1, human PD-1 / PD-L1-Ig binding on Jurkat cell line over-expressing human PD-1 (Jurkat-PD-1) (Homo sapiens, UniProt Q15116).
T1 construct: expressed in transfected cells; host or cells: Jurkat
Nature of the test: Jurkat-PD-1 Cell Binding High-Content Screening Assay (CBA). The class given is cell-based. The note with it: Jurkat-PD-1 cells, PE-labeled PD-L1-Ig 20 nM final; read-out: Jurkat HPD1_PDL1 IC50. An outline of the steps: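 Jurkat cells over-expressing human PD-1, in DMEM/10% FCS, pre-incubated with compound 2 h at 37° C. PE-labeled human PD-L1-Ig (20 nM final) added for 1 h; cells fixed in paraformaldehyde with Hoechst 33342 nuclear stain, washed, and bound fluorescence quantified by high-content imaging.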

SMILES strings stand for the structures. Where a SMILES comes first, the peptide text is derived from it. Bridges are numbered along the chain shown (N, C = ends). [ ]: non-standard residue; d: D form. The star is where a group is joined. ξ: configuration not given here. Bip(3'-COOH) = N[C@@H](Cc1ccc(-c2cccc(C(=O)O)c2)cc1)C(=O)O; Bip(4'-COOH) = N[C@@H](Cc1ccc(-c2ccc(C(=O)O)cc2)cc1)C(=O)O; Phe(3-CF3) = N[C@@H](Cc1cccc(C(F)(F)F)c1)C(=O)O; Ala(morpholin-4-yl) = N[C@@H](CN1CCOCC1)C(=O)O; Phe(4-COOH) = N[C@@H](Cc1ccc(C(=O)O)cc1)C(=O)O; Bip = N[C@@H](Cc1ccc(-c2ccccc2)cc1)C(=O)O; Phe(3-Me) = Cc1cccc(C[C@H](N)C(=O)O)c1; Val(3-OH) = CC(C)(O)[C@H](N)C(=O)O; 4Pal = N[C@@H](Cc1ccncc1)C(=O)O; 3Thi = N[C@@H](Cc1ccsc1)C(=O)O; Cha = N[C@@H](CC1CCCCC1)C(=O)O; Ile(3ξ) = CCC(C)[C@H](N)C(=O)O; Phg = N[C@H](C(=O)O)c1ccccc1; Carboxymethyl = O=C(O)C*; Nle = CCCC[C@H](N)C(=O)O; Orn = NCCC[C@H](N)C(=O)O; Pra = C#CC[C@H](N)C(=O)O; Dab = NCC[C@H](N)C(=O)O; Dap = NC[C@H](N)C(=O)O; Propargyl = C#CC*

For orientation: IC50 means the midpoint of a concentration-inhibition curve.

T1 sequence (Q15116 25-288): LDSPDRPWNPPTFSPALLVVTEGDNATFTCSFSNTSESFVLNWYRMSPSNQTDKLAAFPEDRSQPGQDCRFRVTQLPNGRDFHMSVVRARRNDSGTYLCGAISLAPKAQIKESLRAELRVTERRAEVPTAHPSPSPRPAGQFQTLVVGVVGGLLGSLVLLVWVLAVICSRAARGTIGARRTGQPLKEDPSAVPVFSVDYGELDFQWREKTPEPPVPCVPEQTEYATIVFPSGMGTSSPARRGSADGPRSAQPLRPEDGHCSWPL

On to `Cc1cccc(C[C@@H]2NC(=O)[C@H](CC(=O)O)NC(=O)[C@H](Cc3ccc(OCC(=O)O)cc3)NC(=O)[C@H](C(C)(C)O)NC(=O)CSC[C@@H](C(=O)N[C@@H](CCN)C(N)=O)NC(=O)[C@H](CO)NC(=O)[C@H](C(C)(C)O)NC(=O)[C@H](CC3CCCCC3)NC(=O)[C@H](CCN)NC(=O)[C@@H](CC(C)C)NC(=O)[C@H](CCCN)NC(=O)[C@H](Cc3ccc(OCC(=O)O)cc3)NC(=O)[C@H](Cc3ccc(-c4ccccc4)cc3)NC(=O)[C@H](Cc3ccc(OCC(=O)O)cc3)NC2=O)c1` [Compound 2058] ({CH2CO}-[Val(3-OH)]Y(Carboxymethyl)D[Phe(3-Me)]Y(Carboxymethyl)[Bip]Y(Carboxymethyl)[Orn][dL][Dab][Cha][Val(3-OH)]SC[Dab]-NH2; thioether N-14), for which the IC50 was found to be 25.2 nM.

In the case of `CC(C)C[C@H]1NC(=O)[C@H](CCCN)NC(=O)[C@H](CCC(=O)O)NC(=O)[C@H](Cc2ccc(-c3ccccc3)cc2)NC(=O)[C@H](c2ccccc2)NC(=O)[C@H](Cc2c[nH]c3ccccc23)NC(=O)[C@H](CC(=O)O)NC(=O)[C@H](Cc2ccc(OCC(=O)O)cc2)NC(=O)[C@H](CN)NC(=O)CSC[C@@H](C(=O)N[C@@H](C)C(N)=O)NC(=O)[C@H]([C@@H](C)O)NC(=O)[C@H](C(C)C)NC(=O)[C@H](CC2CCCCC2)NC(=O)[C@H](CCN)NC1=O` [Compound 1720] ({CH2CO}-[Dap]Y(Carboxymethyl)DW[Phg][Bip]E[Orn][dL][Dab][Cha]VTCA-NH2; thioether N-14), the IC50 turned out to be 24 nM. With `C#CC[C@@H]1NC(=O)[C@H](CC2CCCCC2)NC(=O)[C@H](CCN)NC(=O)[C@@H](CC(C)C)NC(=O)[C@H](CCCN)NC(=O)[C@H](C(C)C)NC(=O)[C@H](Cc2ccc(-c3ccccc3)cc2)NC(=O)[C@H](C(C)C)NC(=O)[C@H](Cc2cccc(C)c2)NC(=O)[C@H](CC(=O)O)NC(=O)[C@H](Cc2ccc(OCC(=O)O)cc2)NC(=O)[C@H](CN)NC(=O)CSC[C@@H](C(N)=O)NC(=O)[C@H]([C@@H](C)O)NC1=O` [Compound 2013] ({CH2CO}-[Dap]Y(Carboxymethyl)D[Phe(3-Me)]V[Bip]V[Orn][dL][Dab][Cha][Pra]TC-NH2; thioether N-14), the IC50 turned out to be 21.2 nM. To `Cc1cccc(C[C@@H]2NC(=O)[C@H](CC(=O)O)NC(=O)[C@H](Cc3ccc(OCC(=O)O)cc3)NC(=O)[C@H](Cc3ccsc3)NC(=O)CSC[C@@H](C(=O)N[C@@H](CCN)C(N)=O)NC(=O)[C@H](CO)NC(=O)[C@H](C(C)(C)O)NC(=O)[C@H](CC3CCCCC3)NC(=O)[C@H](CCN)NC(=O)[C@@H](CC(C)C)NC(=O)[C@H](CCCN)NC(=O)[C@H](Cc3ccc(OCC(=O)O)cc3)NC(=O)[C@H](Cc3ccc(-c4ccccc4)cc3)NC(=O)[C@H](Cc3ccc(OCC(=O)O)cc3)NC2=O)c1` [Compound 2615] ({CH2CO}-[3Thi]Y(Carboxymethyl)D[Phe(3-Me)]Y(Carboxymethyl)[Bip]Y(Carboxymethyl)[Orn][dL][Dab][Cha][Val(3-OH)]SC[Dab]-NH2; thioether N-14) belongs 3.7 nM; to `CC(C)C[C@H]1NC(=O)[C@H](CCCN)NC(=O)[C@H](Cc2ccc(C(=O)O)cc2)NC(=O)[C@H](Cc2ccc(-c3ccccc3)cc2)NC(=O)[C@H](Cc2ccc(-c3ccc(C(=O)O)cc3)cc2)NC(=O)[C@H](Cc2cccc(C(F)(F)F)c2)NC(=O)[C@H](CC(=O)O)NC(=O)[C@H](Cc2ccc(C(=O)O)cc2)NC(=O)[C@H](CN2CCOCC2)NC(=O)CSC[C@@H](C(=O)N[C@@H](CCN)C(N)=O)NC(=O)[C@H](CCC(=O)O)NC(=O)[C@H](C(C)C)NC(=O)[C@H](CC2CCCCC2)NC(=O)[C@H](CCN)NC1=O` [Example 2735] ({CH2CO}-[Ala(morpholin-4-yl)][Phe(4-COOH)]D[Phe(3-CF3)][Bip(4'-COOH)][Bip][Phe(4-COOH)][Orn][dL][Dab][Cha]VEC[Dab]-NH2; thioether N-14), 2.2 nM. `CCCC[C@@H]1NC(=O)[C@H](CCN)NC(=O)[C@@H](CC(C)C)NC(=O)[C@H](CCCN)NC(=O)[C@H](C(C)C)NC(=O)[C@H](Cc2ccc(-c3ccccc3)cc2)NC(=O)[C@H](C(C)C)NC(=O)[C@H](Cc2cccc(C)c2)NC(=O)[C@H](CC(=O)O)NC(=O)[C@H](Cc2ccc(C(=O)O)cc2)NC(=O)[C@H](Cc2ccncc2)NC(=O)CSC[C@@H](C(=O)N[C@@H](C)C(N)=O)NC(=O)[C@H]([C@@H](C)O)NC(=O)[C@H](C(C)C)NC1=O` [Compound 1193] ({CH2CO}-[4Pal][Phe(4-COOH)]D[Phe(3-Me)]V[Bip]V[Orn][dL][Dab][Nle]VTCA-NH2; thioether N-14): the half-inhibitory concentration (IC50) came to 7.7 nM. To `C#CCOc1ccc(C[C@@H]2NC(=O)[C@H](Cc3cccc(C)c3)NC(=O)[C@H](CC(=O)O)NC(=O)[C@H](Cc3ccc(C(=O)O)cc3)NC(=O)[C@H]([C@@H](C)O)NC(=O)CSC[C@@H](C(=O)N[C@@H](CCN)C(N)=O)NC(=O)[C@H](CCC(=O)O)NC(=O)[C@H](C(C)C)NC(=O)[C@H](CC3CCCCC3)NC(=O)[C@H](CCN)NC(=O)[C@@H](CC(C)C)NC(=O)[C@H](CCCN)NC(=O)[C@H](Cc3ccc(C(=O)O)cc3)NC(=O)[C@H](Cc3ccc(-c4ccccc4)cc3)NC2=O)cc1` [Compound 1841] ({CH2CO}-T[Phe(4-COOH)]D[Phe(3-Me)]Y(Propargyl)[Bip][Phe(4-COOH)][Orn][dL][Dab][Cha]VEC[Dab]-NH2; thioether N-14) belongs 3.9 nM; to `CCC(C)[C@@H]1NC(=O)[C@H](Cc2ccc(-c3ccccc3)cc2)NC(=O)[C@H](C(C)C)NC(=O)[C@H](Cc2c[nH]c3ccccc23)NC(=O)[C@H](CC(=O)O)NC(=O)[C@H](Cc2ccc(-c3cccc(C(=O)O)c3)cc2)NC(=O)[C@H](CC(N)=O)NC(=O)CSC[C@@H](C(=O)N[C@@H](C)C(N)=O)NC(=O)[C@H]([C@@H](C)O)NC(=O)[C@H](C(C)C)NC(=O)[C@H](CC2CCCCC2)NC(=O)[C@H](CCN)NC(=O)[C@@H](CC(C)C)NC(=O)[C@H](CCCN)NC1=O` (stereo partly drawn) [Compound 2217] ({CH2CO}-N[Bip(3'-COOH)]DWV[Bip][Ile(3ξ)][Orn][dL][Dab][Cha]VTCA-NH2; thioether N-14), 16.8 nM; to `C#CC[C@H](NC(=O)CNC(=O)[C@@H]1CSCC(=O)N[C@@H](CCN)C(=O)N[C@@H](Cc2ccc(OCC(=O)O)cc2)C(=O)N[C@@H](CC(=O)O)C(=O)N[C@@H](Cc2c[nH]c3ccccc23)C(=O)N[C@@H](C(C)C)C(=O)N[C@@H](Cc2ccc(-c3ccccc3)cc2)C(=O)N[C@@H](C(C)CC)C(=O)N[C@@H](CCCN)C(=O)N[C@H](CC(C)C)C(=O)N[C@@H](CCN)C(=O)N[C@@H](CC2CCCCC2)C(=O)N[C@@H](C(C)(C)O)C(=O)N[C@@H](CO)C(=O)N1)C(=O)O` (stereo partly drawn) [Compound 2322] ({CH2CO}-[Dab]Y(Carboxymethyl)DWV[Bip][Ile(3ξ)][Orn][dL][Dab][Cha][Val(3-OH)]SCG[Pra]-OH; thioether N-14), 76.8 nM. Take `C#CC[C@H](NC(=O)[C@H](CCN)NC(=O)[C@@H]1CSCC(=O)N[C@@H](CN)C(=O)N[C@@H](Cc2ccc(OCC(=O)O)cc2)C(=O)N[C@@H](CC(=O)O)C(=O)N[C@@H](Cc2cccc(C)c2)C(=O)N[C@@H](Cc2ccc(OCC(=O)O)cc2)C(=O)N[C@@H](Cc2ccc(-c3ccccc3)cc2)C(=O)N[C@@H](Cc2ccc(OCC(=O)O)cc2)C(=O)N[C@@H](CCCN)C(=O)N[C@H](CC(C)C)C(=O)N[C@@H](CCN)C(=O)N[C@@H](CC2CCCCC2)C(=O)N[C@@H](C(C)(C)O)C(=O)N[C@@H](CO)C(=O)N1)C(N)=O` [Compound 1860] ({CH2CO}-[Dap]Y(Carboxymethyl)D[Phe(3-Me)]Y(Carboxymethyl)[Bip]Y(Carboxymethyl)[Orn][dL][Dab][Cha][Val(3-OH)]SC[Dab][Pra]-NH2; thioether N-14): the IC50 stood at 3.9 nM.

(Values after patent US20250163104A1, “MACROCYCLIC IMMUNOMODULATORS” (priority 2021, published 2025).)
